Literature values, collected in patent publication US6495121B2, “Chewing gum containing dipetide sweetener with lengthened and improved flavor” (Holland Sweetner Company V.O.F., priority 1996, dated 2002).
Where a SMILES comes first, the peptide text is derived from it.

Conditions: relative to sucrose

Row | SMILES | sweetening power
1 | C[C@@H](NC(=O)[C@@H](N)CC(=O)O)C(=O)NC1C(C)(C)SC1(C)C.O [Alitame, L-α-aspartyl-n-(2,2,4,4-tetramethyl-3-thietanyl)-D-alanineamidehydrate] | approximately 2000 × that of sucrose
2 | COC(=O)[C@H](Cc1ccccc1)NC(=O)[C@@H](N)CC(=O)O [Aspartame, α-L-aspartyl-L-phenylalaninemethylester] (H-Asp-Phe-OMe) | approximately 200 × that of sucrose
